In patent US7915012B2, “Methods for screening for inhibitors of TRPV2 activation” (Korea University Industry and Academic Collaboration …, priority 2008, dated 2011):
Entries after “also recorded” stand apart in the source; their conditions may differ.

How the values were obtained:
rTRPV1 = molecular target: T1, rTRPV1 (Rattus norvegicus, UniProt O35433); experiment: Fluo-3 calcium imaging in TRPV1 transfected HEK293T cell line; type: cell-based; conditions: 100 μM probenecid
T1 construct: expressed in transfected cells; host or cells: HEK293T (ATCC CRL-11268)
T1 sequence (O35433 whole entry): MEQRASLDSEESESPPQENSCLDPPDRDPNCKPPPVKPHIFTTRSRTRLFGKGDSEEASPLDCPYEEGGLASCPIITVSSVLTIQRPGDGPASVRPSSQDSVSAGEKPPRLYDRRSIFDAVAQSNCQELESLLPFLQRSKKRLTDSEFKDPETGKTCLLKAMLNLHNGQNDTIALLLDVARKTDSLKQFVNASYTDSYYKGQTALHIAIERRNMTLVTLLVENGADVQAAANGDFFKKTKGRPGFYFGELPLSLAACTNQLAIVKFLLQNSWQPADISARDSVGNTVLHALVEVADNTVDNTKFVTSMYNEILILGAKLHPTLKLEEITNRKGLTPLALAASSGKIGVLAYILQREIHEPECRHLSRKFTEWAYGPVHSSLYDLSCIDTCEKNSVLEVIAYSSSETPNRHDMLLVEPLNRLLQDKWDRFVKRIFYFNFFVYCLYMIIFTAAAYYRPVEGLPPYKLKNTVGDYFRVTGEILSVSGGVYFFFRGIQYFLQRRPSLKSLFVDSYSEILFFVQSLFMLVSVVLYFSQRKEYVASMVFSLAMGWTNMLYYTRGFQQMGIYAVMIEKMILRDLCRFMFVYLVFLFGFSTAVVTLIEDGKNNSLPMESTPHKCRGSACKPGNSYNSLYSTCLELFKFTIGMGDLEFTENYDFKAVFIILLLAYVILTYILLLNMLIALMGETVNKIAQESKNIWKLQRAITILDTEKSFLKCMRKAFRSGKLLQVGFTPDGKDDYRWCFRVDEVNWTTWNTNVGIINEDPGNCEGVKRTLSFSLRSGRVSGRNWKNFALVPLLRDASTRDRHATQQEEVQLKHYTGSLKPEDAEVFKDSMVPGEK
Experimental: (§1) HEK293T cell line (ATCC CRL-1 1268) was transiently transfected with plasmid DNA containing polynucleotide encoding […] (SEQ. ID. NO: 1), rTRPV2 (SEQ. ID. NO: 2), mTRPV3 (SEQ. ID. NO: 3), rTRPV4 (SEQ. ID. NO: 4), mTRPM8 (SEQ. ID. NO: 5) or mTRPA1 (SEQ. ID. NO: 6).
(§2) Particularly, the HEK293T cell line was transiently transfected with individual TRP channel plasmid (pcDNA3.1 containing polynucleotide encoding rTRPV1, rTRPV2, mTRPV3, rTRPV4, mTRPM8 or mTRPA1), and 600 ng/well of pCDNA3 (Invitrogen Corp., USA; containing green fluorescent protein (GFP) cDNA) using Fugene6 (Roche Diagnostics, USA) according to manufacturer's instruction. The transformed cells were cultured in DMEM/F12 containing 10% FBS and 1% penicillin/streptomycin in a CO2 incubator for 24 hours. The cells were replated onto poly-L-lysine-coated glass coverslips, followed by further culture for 10-24 hours.
(§3) Particularly, the transfected cell line of Example <3-1> and Example <3-2> was loaded with Fluo-3AM (5 μM; Sigma Aldrich, USA) in the bath solution (140 mM NaCl, 5 mM KCl, 2 mM CaCl2, 1 mM MgCl2, 10 mM HEPES; adjusted to pH 7.4 with NaOH) containing 0.02% pluronic acid (Invitrogen, USA) at 37° C. for 1 hour. […]

mTRPV3 = molecular target: T2, mTRPV3 (Mus musculus, UniProt Q8K424, A9V); experiment: Fluo-3 calcium imaging in TRPV3 transfected HEK293T cell line; type: cell-based; conditions: 100 μM probenecid
T2 construct: expressed in transfected cells; host or cells: HEK293T (ATCC CRL-11268)
T2 sequence (Q8K424 1-791 A9V): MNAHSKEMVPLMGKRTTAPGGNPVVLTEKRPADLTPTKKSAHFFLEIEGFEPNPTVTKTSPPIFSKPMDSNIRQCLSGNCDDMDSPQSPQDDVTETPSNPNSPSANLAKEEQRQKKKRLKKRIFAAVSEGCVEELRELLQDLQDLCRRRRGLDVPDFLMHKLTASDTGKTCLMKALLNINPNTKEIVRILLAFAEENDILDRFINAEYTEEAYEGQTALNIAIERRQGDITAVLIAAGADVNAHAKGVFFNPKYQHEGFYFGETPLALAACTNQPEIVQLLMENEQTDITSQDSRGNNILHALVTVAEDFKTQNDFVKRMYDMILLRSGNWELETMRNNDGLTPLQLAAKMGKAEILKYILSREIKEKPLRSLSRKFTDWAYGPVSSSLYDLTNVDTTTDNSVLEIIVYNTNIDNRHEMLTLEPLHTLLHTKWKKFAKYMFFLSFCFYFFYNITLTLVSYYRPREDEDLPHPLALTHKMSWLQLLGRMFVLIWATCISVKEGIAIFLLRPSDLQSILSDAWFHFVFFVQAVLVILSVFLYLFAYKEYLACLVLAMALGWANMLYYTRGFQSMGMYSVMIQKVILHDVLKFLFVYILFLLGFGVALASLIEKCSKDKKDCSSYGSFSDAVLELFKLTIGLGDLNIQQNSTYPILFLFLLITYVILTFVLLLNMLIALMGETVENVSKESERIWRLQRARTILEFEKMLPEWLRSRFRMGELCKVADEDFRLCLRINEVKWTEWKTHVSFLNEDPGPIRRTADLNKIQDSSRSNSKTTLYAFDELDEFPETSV
Experimental: as §1, §2, §3

mTRPM8 = molecular target: T3, mTRPM8 (Mus musculus, UniProt Q8R4D5); experiment: Fluo-3 calcium imaging in TRPM8 transfected HEK293T cell line; type: cell-based; conditions: 100 μM probenecid
T3 construct: expressed in transfected cells; host or cells: HEK293T (ATCC CRL-11268)
T3 sequence (Q8R4D5 whole entry): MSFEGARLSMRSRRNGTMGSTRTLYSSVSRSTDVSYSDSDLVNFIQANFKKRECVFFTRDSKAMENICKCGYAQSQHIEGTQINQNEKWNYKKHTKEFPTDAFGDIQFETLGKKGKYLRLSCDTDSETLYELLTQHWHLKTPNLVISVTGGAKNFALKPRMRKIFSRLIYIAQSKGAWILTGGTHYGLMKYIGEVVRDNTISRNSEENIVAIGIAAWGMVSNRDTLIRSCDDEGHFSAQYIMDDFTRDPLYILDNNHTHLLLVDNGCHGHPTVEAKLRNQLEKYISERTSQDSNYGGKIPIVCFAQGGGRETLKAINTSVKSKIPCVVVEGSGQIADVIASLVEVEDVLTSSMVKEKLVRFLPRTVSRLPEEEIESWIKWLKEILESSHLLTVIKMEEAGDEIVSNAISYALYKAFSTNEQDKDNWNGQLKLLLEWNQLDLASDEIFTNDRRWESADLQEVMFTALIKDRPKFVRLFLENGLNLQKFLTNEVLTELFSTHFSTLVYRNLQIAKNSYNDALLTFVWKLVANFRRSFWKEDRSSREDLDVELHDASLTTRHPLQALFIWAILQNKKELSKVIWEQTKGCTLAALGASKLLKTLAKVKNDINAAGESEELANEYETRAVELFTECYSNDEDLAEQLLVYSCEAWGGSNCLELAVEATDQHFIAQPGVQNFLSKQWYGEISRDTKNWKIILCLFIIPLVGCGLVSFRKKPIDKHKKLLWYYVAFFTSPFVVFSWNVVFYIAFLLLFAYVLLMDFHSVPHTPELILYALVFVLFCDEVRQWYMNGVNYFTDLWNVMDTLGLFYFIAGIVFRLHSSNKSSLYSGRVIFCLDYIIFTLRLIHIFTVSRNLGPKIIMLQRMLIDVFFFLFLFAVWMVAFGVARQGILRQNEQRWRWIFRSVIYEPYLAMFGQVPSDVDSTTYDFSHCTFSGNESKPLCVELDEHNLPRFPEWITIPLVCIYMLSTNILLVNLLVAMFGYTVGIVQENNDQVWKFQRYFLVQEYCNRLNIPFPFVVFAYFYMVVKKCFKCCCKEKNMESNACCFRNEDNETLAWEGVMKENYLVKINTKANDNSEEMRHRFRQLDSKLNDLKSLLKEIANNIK
Experimental: as §1, §2, §3

Oral aversion test = type: in vivo, ICR mice
Experimental: Oral aversion test was confirmed according to the methods of Caterina M J, et al. (Science 288:306-313, 2000) and Kwan K Y, et al. (Neuron 50: 277-289, 2006). Particularly, adult ICR mice randomly selected and raised were allowed to drink water containing 0.125% saccharin (Sigma Aldrich, USA) only for three hours a day. Water and feed were provided for 4 days. Water and feed consumptions were measured everyday. On day 4, water containing 20 mM probenecid was provided for 3 hours. Statistical data were analyzed by two-tailed, unpaired Student's-t-test and the results were presented by mean ±S.E.M.

[1] = Hindpaw licking/flicking behaviors; type: in vivo, mice; conditions: 10 minutes
Experimental: Inflammatory sensitization by probenecid was investigated. Particularly, 50 μl of 1% carrageenan (Sigma Aldrich, USA) was injected to the right hind paws of mice 3 hours before the probenecid injection or 50 μl of CFA (complete Freund's adjuvant; Sigma Aldrich, USA) was injected 24 hours before the probenecid injection. Before the experiment, the mice were adapted for one hour to the experimental environment. […] of vehicle (saline containing 3% DMSO and 0.5% Tween 80) alone or […] of vehicle containing probenecid (20 mM) was injected to the right hind paws of the mice.
The time spent for the hindpaw licking/flicking behaviors in mice were measured according to the method of Bandell M, et al. (Neuron 41:849-857, 2004) and Moqrich A, et al. (Science 307:1468-1472, 2005), for 10 minutes. Statistical data were analyzed by two-tailed, unpaired Student's-t-test and the results were presented by mean ±S.E.M. (***p<0.001, **p<0.01, *p<0.05 and ND, p>0.05).

Structure (SMILES): CCCN(CCC)S(=O)(=O)c1ccc(C(=O)O)cc1 [probenecid]
- TRPV1 activation (calcium imaging) (rTRPV1): only TRPV2 was activated; also recorded: not confirmed
- TRPV3 activation (calcium imaging) (mTRPV3): only TRPV2 was activated; also recorded: not confirmed
- TRPM8 activation (calcium imaging) (mTRPM8): only TRPV2 was activated; also recorded: not confirmed
- oral aversion (Oral aversion test; water containing 20 mM probenecid): did not induce oral aversion
- water and feed consumption, treated versus not treated group (Oral aversion test; water containing 20 mM probenecid for 3 hours on day 4, n=5): no significant difference
- hindpaw licking/flicking behavior in normal mice ([1]; 20 mM probenecid injected to the right hind paw): no significant changes in behavior
- hindpaw licking/flicking behavior in mice with inflammation induced by carrageenan ([1]; 1% carrageenan 3 hours before, 20 mM probenecid to the right hind paw): significantly extended behavior time; also recorded: behavial changes were observed
- hindpaw licking/flicking behavior in mice with inflammation induced by CFA ([1]; CFA 24 hours before, 20 mM probenecid to the right hind paw): significantly extended behavior time; also recorded: behavial changes were observed
